In patent US8273775B2, “Non-steroidal brassinosteroid mimetic” (priority 2006, dated 2012):

Tested on: gene expression in Col-0 seedling shoots
Experiment: Microarray analysis (ATH1 Affymetrix) after BL or abrasin treatment
Format: in vivo, Arabidopsis
Details: 120 min
Method: FIG. 14: Clustering of gene expression profiles by QT-clust analysis. Clusters illustrating the major patterns of the data sets. Points: BIK-30: 30 μM abrasin 30 min; BL-30: 1 μM brassinolide 30 min; DMSO-30: control DMSO 30 min; BIK-120: 30 μM abrasin 120 min; BL-120: 1 μM brassinolide 120 min; DMSO-120: control DMSO 120 min.
Col-0 seeds were germinated vertically on ½ MS medium for 7 days under 16 h light/8 h dark cycles. The seedlings were overlaid with liquid ½ MS medium containing 1 μM brassinolide (BL, Fuji Chemical Industries, Ltd., Toyama, Japan), 30 μM abrasin (BIK, ChemBridge Corporation) and DMSO and treated for 30 and 120 min. The shoot parts were collected for RNA isolation. All sampling points were performed in three independent experiments. RNA was extracted using RNeasy kit (Qiagene). […] total RNA per array was used to hybridise the ATH1 Affymetrix Arabidopsis arrays according to standard procedure. The overrepresentation analyses were performed using BiNGO software (Maere et al., 2005).
We performed a microarray analysis using the Arabidopsis whole genome chip (Affymetix) to determine whether abrasin activated the expression of BR-inducible genes at transcriptional level. Wild-type Col-0 seedlings were exposed to 1 μM BL, 30 μM ABRASIN and DMSO (mock-treatment) for two time points (30 min and 120 min) and the shoot parts were collected for RNA isolation. The analysis of the variance of the normalized gene expression data took in account the variability parameters affecting the expression level: type of hormone treatment, duration of treatment and the interaction between these two.

## O=C(O)CCC(=O)Nc1ccc(Br)cn1 [abrasin, 4-[(5-bromo-2-pyridinyl)amino]-4-oxobutanoic acid]
  Fold-change AT4G16780 homeobox-leucine zipper protein 4 (HAT4)/HD-ZIP protein: 0.42
  Fold-change AT4G17250 expressed protein: 3.32
  Fold-change AT4G17460 homeobox-leucine zipper protein 1 (HAT1)/HD-ZIP protein 1: 0.11
  Fold-change AT4G21510 F-box family protein: 2.54
  Fold-change AT4G23030 MATE efflux protein-related: 5.25
  Fold-change AT4G23070 rhomboid family protein: 3.80
  Fold-change AT4G23810 WRKY family transcription factor: 1.00
  Fold-change AT4G24160 hydrolase, alpha/beta fold family protein: 2.29
  Fold-change AT4G25620 hydroxyproline-rich glycoprotein family protein: 0.49
  Fold-change AT4G25780 pathogenesis-related protein: 0.18
  Fold-change AT4G27970 C4-dicarboxylate transporter/malic acid transport family protein: 3.04
  Fold-change AT4G28240 wound-responsive protein-related: 0.33
  Fold-change AT4G28490 leucine-rich repeat transmembrane protein kinase, putative: 2.30
  Fold-change AT4G28703 expressed protein: 6.14
  Fold-change AT4G28780 GDSL-motif lipase/hydrolase family protein: 1.26
  Fold-change AT4G29070 expressed protein: 0.50
  Fold-change AT4G30080 transcriptional factor B3 family protein: 0.41
  Fold-change AT4G31020 expressed protein: 5.81
  Fold-change AT4G32280 auxin-responsive AUX/IAA family protein (IAA29): 0.13
  Fold-change AT4G33050 calmodulin-binding family protein: 1.58
  Fold-change AT4G33700 CBS domain-containing protein: 0.38
  Fold-change AT4G34610 homeodomain-containing protein: 0.41
  Fold-change AT4G36110 auxin-responsive protein: 4.62
  Fold-change AT4G36780 brassinosteroid signalling positive regulator-related: 0.03
  Fold-change AT4G37240 expressed protein: 1.45
  Fold-change AT4G37290 expressed protein: 2.45
  Fold-change AT4G37590 phototropic-responsive NPH3 family protein: 0.43
  Fold-change AT4G38840 auxin-responsive protein (SAUR14): 1.95
  Fold-change AT4G38850 auxin-responsive protein (SAUR-AC1): 2.22
  Fold-change AT4G38860 auxin-responsive protein (SAUR16): 2.27
  Fold-change AT4G39400 brassinosteroid insensitive 1 (BRI1): 0.46
  Fold-change AT5G02020 expressed protein: 2.29
  Fold-change AT5G05690 cytochrome P450 90A1 (CYP90A1) (CYP90) (CPD): 0.29
  Fold-change AT5G07690 myb family transcription factor (MYB29): 0.27
  Fold-change AT5G08130 basic helix-loop-helix (bHLH) family protein (BIM2): 0.37
  Fold-change AT5G12050 expressed protein: 0.27
  Fold-change AT5G13180 no apical meristem (NAM) family protein: 0.39
  Fold-change AT5G13740 sugar transporter family protein: 0.23
  Fold-change AT5G14730 expressed protein: 0.53
  Fold-change AT5G16200 50S ribosomal protein-related: 0.10
  Fold-change AT5G16980 NADP-dependent oxidoreductase: 3.07
  Fold-change AT5G18750 DNAJ heat shock N-terminal domain-containing protein: 1.26
  Fold-change AT5G19200 short-chain dehydrogenase/reductase (SDR) family protein: 1.11
  Fold-change AT5G19340 expressed protein: 0.23
  Fold-change AT5G24030 C4-dicarboxylate transporter/malic acid transport family protein: 1.66
  Fold-change AT5G24660 expressed protein: 3.61
  Fold-change AT5G25240 expressed protein: 2.16
  Fold-change AT5G25930 leucine-rich repeat family protein: 1.38
  Fold-change AT5G27350 sugar-porter family protein 1 (SFP1): 1.56
  Fold-change AT5G27670 histone H2A: 0.41
  Fold-change AT5G38310 expressed protein: 1.88
  Fold-change AT5G38990; AT5G39000 [AT5G38990, protein kinase family protein: 2.08
  Fold-change AT5G39050 transferase family protein: 1.83
  Fold-change AT5G39610 no apical meristem (NAM) family protein: 0.35
  Fold-change AT5G39970 expressed protein: 2.66
  Fold-change AT5G42830 transferase family protein: 2.74
  Fold-change AT5G47370 homeobox-leucine zipper protein 2 (HAT2): 0.43
  Fold-change AT5G48070 putative xyloglucan endotransglycosylase/hydrolase: 3.63
  Fold-change AT5G48540 33 kDa secretory protein-related: 2.03
  Fold-change AT5G51550 phosphate-responsive 1 family protein: 0.41
  Fold-change AT5G54490 calcium-binding EF-hand protein, putative: 3.06
  Fold-change AT5G54860 integral membrane transporter family protein: 2.01
  Fold-change AT5G55970 zinc finger (C3HC4-type RING finger) family protein: 2.56
  Fold-change AT5G56980 expressed protein: 0.22
  Fold-change AT5G57190 phosphatidylserine decarboxylase: 1.58
  Fold-change AT5G57780 expressed protein: 0.13
  Fold-change AT5G59080 expressed protein: 0.40
  Fold-change AT5G60200 Dof-type zinc finger domain-containing protein: 3.85
  Fold-change AT5G60270 lectin protein kinase family protein: 2.56
  Fold-change AT5G60630 expressed protein: 2.20
  Fold-change AT5G61600 encodes a member of the ERF (ethylene response factor): 2.04
  Fold-change AT5G62360 invertase/pectin methylesterase inhibitor family protein: 0.25
  Fold-change AT5G65310 homeobox-leucine zipper protein 5 (HB-5)/HD-ZIP transcription factor 5: 0.20
  Fold-change AT5G66420 expressed protein: 0.42
  Fold-change AT5G66590 allergen V5/Tpx-1-related family protein: 0.31
  Fold-change AT5G67450 zinc finger (C2H2 type) protein 1 (AZF1): 1.82
245479_at, Cluster 6
  Fold-change of gene AT4G16140 (proline-rich family protein): 1.51
245543_at, Cluster 7
  Fold-change of gene AT4G15260 (UDP-glucoronosyl/UDP-glucosyl transferase family protein): 1.52
245885_at, Cluster 5
  Fold-change of gene AT5G09440 (phosphate-responsive protein, putative): 0.13
246389_at, Cluster 10
  Fold-change of gene AT1G77380 (amino acid carrier): 0.99
246516_at, Cluster 5
  Fold-change of gene AT5G15740 (expressed protein): 0.49
247177_at, Cluster 5
  Fold-change of gene AT5G65300 (expressed protein): 0.25
247205_at, Cluster 10
  Fold-change of gene AT5G64890 (expressed protein): 2.18
247351_at, Cluster 9
  Fold-change of gene AT5G63790 (no apical meristem (NAM) family protein): 0.69
247444_at, Cluster 7
  Fold-change of gene AT5G62630 (expressed protein): 2.28
247601_at, Cluster 10
  Fold-change of gene AT5G60850 (Dof-type zinc finger domain-containing protein): 0.64
247704_at, Cluster 9
  Fold-change of gene AT5G59510 (expressed protein): 0.60
247774_at, Cluster 5
  Fold-change of gene AT5G58660 (oxidoreductase. 2OG-Fe(II) oxygenase family protein): 2.15
248190_at, Cluster 5
  Fold-change of gene AT5G54120 (expressed protein): 0.38
248191_at, Cluster 5
  Fold-change of gene AT5G54130 (calcium-binding EF hand family protein): 0.31
248282_at, Cluster 6
  Fold-change of gene AT5G52900 (expressed protein): 0.96
248646_at, Cluster 9
  Fold-change of gene AT5G49100 (expressed protein): 0.62
250012_x_at, Cluster 6
  Fold-change of gene AT5G18060 (auxin-responsive protein): 0.46
250493_at, Cluster 9
  Fold-change of gene AT5G09800 (U-box domain-containing protein): 0.80
250537_at, Cluster 8
  Fold-change of gene AT5G08565 (expressed protein): 0.41
250907_at, Cluster 5
  Fold-change of gene AT5G03670 (expressed protein): 0.32
251072_at, Cluster 5
  Fold-change of gene AT5G01740 (expressed protein): 0.34
251176_at, Cluster 10
  Fold-change of gene AT3G63380 (calcium-transporting ATPase): 0.11
251342_at, Cluster 9
  Fold-change of gene AT3G60690 (auxin-responsive family protein): 0.29
252586_at, Cluster 10
  Fold-change of gene AT3G45610 (Dof-type zinc finger domain): 2.56
252646_at, Cluster 5
  Fold-change of gene AT3G44610 (protein kinase family protein): 0.38
253255_at, Cluster 6
  Fold-change of gene AT4G34760 (auxin-responsive family protein): 1.61
253281_at, Cluster 7
  Fold-change of gene AT4G34138 (UDP-glucoronosyl/UDP-glucosyl transferase family protein): 3.16
253483_at, Cluster 5
  Fold-change of gene AT4G31910 (transferase family protein): 1.60
253617_at, Cluster 5
  Fold-change of gene AT4G30410 (expressed protein): 0.45
253629_at, Cluster 5
  Fold-change of gene AT4G30450 (glycine-rich protein): 0.39
253999_at, Cluster 9
  Fold-change of gene AT4G26200 (1-aminocyclopropane-1-carboxylate synthase): 0.24
255403_at, Cluster 6
  Fold-change of gene AT4G03400 (auxin-responsive GH3 family protein): 0.77
255443_at, Cluster 7
  Fold-change of gene AT4G02700 (sulfate transporter): 2.16
255926_at, Cluster 8
  Fold-change of gene AT1G22190 (AP2 domain-containing transcription factor): 0.50
256528_at, Cluster 6
  Fold-change of gene AT1G66140 (zinc finger (C2H2 type) family protein): 0.61
256762_at, Cluster 8
  Fold-change of gene AT3G25655 (expressed protein): 0.15
256818_at, Cluster 7
  Fold-change of gene AT3G21420 (oxidoreductase, 2OG-Fe(II) oxygenase family protein): 2.39
257066_at, Cluster 5
  Fold-change of gene AT3G18280 (protease inhibitor/seed storage/lipid transfer protein): 0.39
257506_at, Cluster 6
  Fold-change of gene AT1G29440 (auxin-responsive family protein): 0.47
257746_at, Cluster 5
  Fold-change of gene AT3G29200 (chorismate mutase, chloroplast (CM1)): 0.49
259364_at, Cluster 8
  Fold-change of gene AT1G13260 (DNA-binding protein RAV1 (RAV1)): 0.46
259773_at, Cluster 6
  Fold-change of gene AT1G29500 (auxin-responsive protein): 0.61
259783_at, Cluster 6
  Fold-change of gene AT1G29510 (auxin-responsive protein): 0.50
259784_at, Cluster 6
  Fold-change of gene AT1G29450 (auxin-responsive protein): 0.61
259787_at, Cluster 6
  Fold-change of gene AT1G29460 (auxin-responsive protein): 0.44
259875_s_at, Cluster 7
  Fold-change of gene AT1G76690; AT1G76680 ([AT1G76690, 12-oxophytodienoate reductase (OPR2)): 6.14
259985_at, Cluster 8
  Fold-change of gene AT1G76620 (expressed protein): 0.28
260243_at, Cluster 10
  Fold-change of gene AT1G63720 (expressed protein): 0.16
260727_at, Cluster 8
  Fold-change of gene AT1G48100 (glycoside hydrolase family 28 protein): 0.38
261023_at, Cluster 7
  Fold-change of gene AT1G12200 (flavin-containing monooxygenase family protein): 2.20
261203_at, Cluster 6
  Fold-change of gene AT1G12845 (expressed protein): 2.71
261768_at, Cluster 6
  Fold-change of gene AT1G15550 (gibberellin 3-beta-dioxygenase): 1.17
261892_at, Cluster 9
  Fold-change of gene AT1G80840 (WRKY family transcription factor): 0.20
262040_at, Cluster 6
  Fold-change of gene AT1G80080 (leucine-rich repeat family protein): 2.07
262050_at, Cluster 8
  Fold-change of gene AT1G80130 (expressed protein): 0.18
262505_at, Cluster 10
  Fold-change of gene AT1G21680 (expressed protein): 2.01
262543_at, Cluster 6
  Fold-change of gene AT1G34245 (expressed protein): 5.18
263126_at, Cluster 7
  Fold-change of gene AT1G78460 (SOUL heme-binding family protein): 2.50
264279_s_at, Cluster 7
  Fold-change of gene AT1G78820; AT1G78830 ([AT1G78820, curculin-like (mannose-binding) lectin family protein): 1.84
265877_at, Cluster 6
  Fold-change of gene AT2G42380 (bZIP transcription factor family protein): 0.80
266124_at, Cluster 8
  Fold-change of gene AT2G45080 (cyclin family protein): 0.10
